Data on two compounds can be found in patent US20080033010A1, “Combination therapy of erdosteine and beta-2 agonists for treating respiratory pathologies characterized by non reversible or partially reversible airway obstruction” (EDMOND PHARMA s.r.l., priority 2006, published 2008).

The assay relates to newly diagnosed COPD subjects. Briefly: Test of bronchial reversibility with salbutamol (spirometry, FEV1) before and after 4 and 10 days of erdosteine therapy, double-blind against placebo. In kind it is in vivo, humans. Here is the method: This effect has been found in a trial utilizing the test of bronchial reversibility with salbutamol before and after 4 and 10 days of therapy with erdosteine at the dose of 900 mg/day, that is the maximum dosage presently approved in humans. The standard protocol has been used: spirometry was performed before and 15-20 minutes after the administration of […] of salbutamol with a metered inhaler. For reducing the bias, the study was double-blind against placebo and the patients selected were newly diagnosed COPD subjects never treated with −2 agonists. 7 patients were treated with erdosteine and 7 with placebo in a random order. At baseline, all the patients had only a partial reversibility (mean 2.5%) of bronchial obstruction calculated with the FEV1 (the absolute values were 1.5 liters before salbutamol and 1.537 liters after salbutamol), thus fully meeting the COPD definition. When the test was repeated at Day 4 of therapy, the reversibility of bronchial obstruction in the placebo group was not different from the baseline values (mean increase of FEV1: 0.9%), while in the erdosteine group there was a significant and unexpected increase of post-salbutamol FEV1 values in all the patients (mean increase of FEV1: 7.1%).

The mark [1] stands for this setting: baseline, all the patients, before therapy.
[2] abbreviates: Patient #1, after 4 days of erdosteine therapy.
[3] abbreviates: Patient #1, after 10 days of erdosteine therapy.
[4] abbreviates: Patient #4, after 4 days of erdosteine therapy.
The mark [5] stands for this setting: Patient #4, after 10 days of erdosteine therapy.
Setting [6] is: Patient #4, before therapy (baseline).

With `CC(C)(C)NCC(O)c1ccc(O)c(CO)c1` (centres unmarked) [salbutamol], under “baseline, all the patients, before erdosteine or placebo therapy, salbutamol alone”, the “partial reversibility of bronchial obstruction calculated with the FEV1 (mean)” value is recorded as 2.5%. Moreover, under setting [1], the “FEV1 absolute value after salbutamol” value came out at 1.537 L and the “FEV1 absolute value before salbutamol” value is 1.5 L.

Regarding `O=C(O)CSCC(=O)NC1CCSC1=O` (centres unmarked) [erdosteine], the FEV1 post salbutamol turned out to be 2.05 under setting [2]; 2.13 under setting [3]; 1.81 (Patient #1, before therapy (baseline)); 1.96 under setting [4]; 1.92 under setting [5]; 1.26 under setting [6]. The compound also displayed an FEV1 pre salbutamol under setting [2] of 1.85 and an FEV1 pre salbutamol under setting [4] of 1.74. Moreover, the “increase of FEV1 post vs pre salbutamol” value under setting [2] is given as “+10.8%”; the “increase of FEV1 post vs pre salbutamol” value under setting [3] is on record as “+9.4%”; the “increase of FEV1 post vs pre salbutamol” value under setting [4] is “+12.6%”; the “increase of FEV1 post vs pre salbutamol” value under setting [5] is listed as “+13%”; the “increase of FEV1 post vs pre salbutamol” value under setting [6] is reported as “+5.9%”. Besides, the FEV1 pre-salbutamol was found to be 1.93 under setting [3]; 1.81 (Patient #1, before therapy (baseline) (entry two)); 1.19 (Patient #4 (person one), before therapy (baseline)); 1.69 under setting [5]. The “reversal of the bronchial obstruction” value (erdosteine administered with beta agonists vs beta agonist alone) is on record as “much more evident than that obtained with the beta agonist alone”. For the same compound, the “mean increase of FEV1 (reversibility of bronchial obstruction, post-salbutamol)” value by setting is: (erdosteine group (7 patients), Day 4 of therapy, erdosteine 900 mg/day, spirometry 15-20 minutes after salbutamol) 7.1%; (erdosteine group, final control at Day 10, erdosteine 900 mg/day) 10.3%.
